# Results reported in ChEMBL document CHEMBL1157560, “SAR studies on new bis-aryls 5-HT7 ligands: Synthesis and molecular modeling” (Bioorg Med Chem, 2010).
# How the values were obtained:
# [1] = biological target: T1, 5-hydroxytryptamine receptor 1A (Rattus norvegicus, UniProt P19327); experiment: Displacement of [3H]8-OH-DPAT from 5HT1A receptor in rat hippocampus; type: tissue-based
# T1 sequence (P19327 whole entry): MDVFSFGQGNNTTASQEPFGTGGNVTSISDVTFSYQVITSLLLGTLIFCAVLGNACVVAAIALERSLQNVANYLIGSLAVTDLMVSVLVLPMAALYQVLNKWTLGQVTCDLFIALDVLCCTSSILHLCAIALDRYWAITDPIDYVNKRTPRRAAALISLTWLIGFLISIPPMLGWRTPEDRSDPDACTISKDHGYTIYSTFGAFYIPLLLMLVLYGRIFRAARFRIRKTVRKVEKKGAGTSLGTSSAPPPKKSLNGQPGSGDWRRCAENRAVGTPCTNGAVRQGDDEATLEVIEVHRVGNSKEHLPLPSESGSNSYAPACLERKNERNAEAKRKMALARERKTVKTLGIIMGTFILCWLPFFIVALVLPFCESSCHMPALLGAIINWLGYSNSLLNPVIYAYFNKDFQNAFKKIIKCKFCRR
# [2] = biological target: 5-hydroxytryptamine receptor 7 (Homo sapiens, UniProt P34969); experiment: Displacement of [3H]5CT from human cloned 5HT7B receptor expressed in HEK293 cells; type: cell-based
# 5-hydroxytryptamine receptor 7, sequence (P34969 whole entry): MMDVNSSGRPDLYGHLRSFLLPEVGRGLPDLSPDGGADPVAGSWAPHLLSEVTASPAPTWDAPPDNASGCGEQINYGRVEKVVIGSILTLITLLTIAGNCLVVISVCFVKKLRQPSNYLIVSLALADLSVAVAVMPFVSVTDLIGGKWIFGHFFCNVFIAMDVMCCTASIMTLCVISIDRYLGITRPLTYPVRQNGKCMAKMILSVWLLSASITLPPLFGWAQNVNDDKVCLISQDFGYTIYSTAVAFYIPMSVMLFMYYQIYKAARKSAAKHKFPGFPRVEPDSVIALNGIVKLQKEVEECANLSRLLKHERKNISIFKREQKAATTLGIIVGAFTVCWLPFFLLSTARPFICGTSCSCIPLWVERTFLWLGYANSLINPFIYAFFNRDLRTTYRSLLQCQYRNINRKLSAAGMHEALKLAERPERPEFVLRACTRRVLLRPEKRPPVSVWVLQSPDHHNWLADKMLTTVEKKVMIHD
Compound,Ki [1],Ki [2]
CN(C)CCSc1cccc(Br)n1,0.133 µM,0.037 µM
CN(C)CCSc1cccc(-c2ccccc2)n1,0.043 µM,
COc1cccc(OC)c1-c1cccc2c1OC[C@H](N(C)C)C2,,0.00255 µM
CCCN(CCC)[C@H]1COc2c(cccc2-c2ccccc2)C1,,0.00338 µM
CN(C)CCOc1ccccc1-c1ccccc1,,0.156 µM
CCCN(CCC)[C@H]1CCc2c(cccc2-c2ccccc2)C1,,0.00291 µM
Cc1cccc(C)c1-c1ccc2c(c1)C[C@H](N(C)C)CO2,,0.0134 µM
Cc1cccc(C)c1-c1ccccc1SCCN(C)C,,1.43 µM
Cc1cccc(C)c1-c1cccc(OCCN(C)C)n1,7.22 µM,1.61 µM
COc1cccc(OC)c1-c1cnnc(CCN(C)C)n1,,> 10 µM
CCCN(CCC)[C@H]1CCc2c(cccc2-c2cccc3ccccc23)C1,,0.0003 µM
CN(C)CCOc1cccc(Br)n1,0.902 µM,
Cc1cccc(C)c1-c1cccc(SCCN(C)C)n1,0.927 µM,0.128 µM
CN(C)CCSc1cccc(-c2ccccc2)c1,0.516 µM,
Cc1cccc(C)c1-c1cnnc(CCN(C)C)n1,,> 10 µM
Cc1cccc(C)c1-c1cccc(SCCN(C)C)c1,2.35 µM,
CN(C)CCSc1cccc(-c2ccoc2)n1,0.028 µM,0.026 µM
CN(C)CCOc1ccccc1Br,,2.66 µM
COc1ccccc1-c1ccccc1OCCN(C)C,,0.669 µM
CN(C)CCc1nncc(-c2ccccc2)n1,,> 10 µM
CN(C)CCSc1ccccc1-c1ccccc1,,0.553 µM
COc1cccc(OC)c1-c1ccnc(CCN(C)C)n1,,1.48 µM
CN(C)CCSc1cccc(Br)c1,0.676 µM,
CN(C)CCSc1ccccc1Br,,4.11 µM
